This note sets out measurements from patent US20240374626A1, “METHODS OF ENHANCING MILK PRODUCTION IN LACTATING MAMMALIAN SUBJECTS” (priority 2023, published 2024).

The test system of test [1] is γH2AX. The test is described as follows: γH2AX immunofluorescence on HC11 cells. The following applies: HC11, doxorubicin 50 nM, 24 h post-treatment. It is filed as cell-based, mouse. How it is done:
(§1) […] Drugs were maintained through the differentiation process and added with every change of media.
(§2) HC11 cells were fixed using ice-cold MeOH for 10 min. After washing with 1×PBS, cells were incubated for 1 h at room temperature with primary antibodies [anti-γH2AX (SCBT, sc-517348), anti-pATR (Genetex, GTX128145), anti-PLIN2 (generously provided by Jim McManaman)] in a humid incubation chamber. After incubation, cells were washed three times using 1×PBS and incubated for 1 h at room temperature in darkness using corresponding Alexa Fluor AffiniPure secondary antibodies (Jackson ImmunoResearch) and Phalloidin-iFluor 488 Reagent (Abcam, ab176753) when indicated. Cells were washed three times using 1×PBS and incubated with Hoechst 33342 (AnaSpec, AS-83218) for 10 min. Cells were mounted using fluoromount-G (Southern Biotech, 0100-01) and visualized using Zeiss Axio Imager Microscope. Integrated density of PLIN2, nuclear γH2AX and nuclear pATR was quantify using ImageJ.

The test system of test [2] is HC11 cells. The test is described as follows: Milk production markers in differentiated HC11 (milk domes, Csn2 RT-qPCR, CSN2 WB, PLIN2 ICC). In kind it is cell-based, mouse. The note with it: HC11, doxorubicin 50 nM, differentiated. The method, then:
The HC11 cell line was obtained from American Type Culture Collection (ATCC) and routinely checked for mycoplasma (Mycoplasma PCR kit, ABM, G238). Undifferentiated HC11 cells were cultured in growing medium (RPMI-1640; Thermo Fisher Scientific, 72400047), supplemented with 10% FBS, 5 μg/ml insulin (Millipore-Sigma, 16634), 10 ng/ml epidermal growth factor (EGF; Preprotech, AF-100-15) and 1× AntiAnti (Thermo Fisher Scientific, 15240112) at 37° C. with 5% CO2. Cells were grown to confluency and maintained in growing medium for 2 days, until they became competent. Competent HC11 cells were primed for differentiation by culturing them in priming medium [RPMI-1640 supplemented with 5 μg/ml insulin, 1 μM dexamethasone (Millipore-Sigma, D4902-1 G) and 1× Anti-Anti] for 24 h at 37° C. with 5% CO2. To induce differentiation, primed HC11 cells were cultured in DIP Medium [RPMI-1640, supplemented with 10% FBS, 5 μg/ml insulin, 1 μM dexamethasone, 1× anti-anti and 3 μg/ml Prolactin (NHPP, oPRL-21)] at 37° C. with 5% CO2.
as §1
Whole cell lysates were prepared using 1×NP40 lysis buffer (Thermo Fisher Scientific, FNN0021) supplemented with Pierce Protease and Phosphatase inhibitors (Thermo Fisher Scientific, A32959). Cells were washed with ice-cold PBS (GIBCO, 14190136) and lysed direct in buffer and kept at 4° C. rocking at 70 rpm for 30 min. Lysed cells were collected and centrifuged at 12,000 rpm at 4° C. for 15 min. Protein concentration was quantified using Qubit 4 fluorometer (Thermo Fisher, Q33238). Samples were resolved by SDS page and transferred to polyvinylidene difluoride (PVDF, Millipore-Sigma, IPVH00010) for 60 min at 250 mA. Immunoblots were blocked for 1 h at room temperature using either 5% non-fat milk or 5% BSA TBST. Primary antibodies [anti-GAPDH (SCBT, sc-365062), anti-Actin (SCBT, sc-47778), anti-Cyclin B1 (SCBT, sc-245), anti-Cyclin E1 (Millipore-Sigma, SAB4503516) and anti-CSN2 (ABclonal, A12749)] were incubated overnight at 4° C. in a rocker. HRP-conjugated secondary antibodies ([…]) were used for 1 h at room temperature. Immunoblots were developed using Clarity ECL (Bio-Rad), detected using a Bio-Rad ChemiDoc MP Image, and quantified using ImageJ.
as §2
For RNA isolation from FACS purified populations, mammary gland cell suspensions were blocked using Mouse BD Fc Block™ (BD Biosciences) for 10 min. Cells were subsequently resuspended on 1×PBS at a density of 10^7 cells/ml and stained with the following antibodies for 30 min on ice: anti-CD24 PE (Stem Cell Technologies, 60099PE.1), anti-CD29 PE-Cy7 (BioLegend, 102222), anti-CD45-APC (BioLegend,105826), Ter119-APC (BD Biosciences, 561033), CD31-ACP (BD Biosciences, 551262). Propidium iodide at a final concentration of 0.5 μg/ml was used for the discrimination of dead cells. Stromal, basal and luminal mammary populations were sorted using a BD FACS Aria II Cell Sorter. […]
(In general: Quantitative PCR measures a nucleic acid by following its amplification.)

In the case of `COc1cccc2c1C(=O)c1c(O)c3c(c(O)c1C2=O)C[C@@](O)(C(=O)CO)C[C@@H]3O[C@H]1C[C@H](N)[C@H](O)[C@H](C)O1` [doxorubicin], in test [1], the γH2AX result is “increase”. The “CSN2, WB” value in test [2] is listed as “increase”.
